Data taken from the Kinase Knowledgebase extract (Sharma et al. 2016).

These molecules were tested against EGFR (human) (UniProt P00533).
EGFR (human), sequence (P00533 whole entry, looked up): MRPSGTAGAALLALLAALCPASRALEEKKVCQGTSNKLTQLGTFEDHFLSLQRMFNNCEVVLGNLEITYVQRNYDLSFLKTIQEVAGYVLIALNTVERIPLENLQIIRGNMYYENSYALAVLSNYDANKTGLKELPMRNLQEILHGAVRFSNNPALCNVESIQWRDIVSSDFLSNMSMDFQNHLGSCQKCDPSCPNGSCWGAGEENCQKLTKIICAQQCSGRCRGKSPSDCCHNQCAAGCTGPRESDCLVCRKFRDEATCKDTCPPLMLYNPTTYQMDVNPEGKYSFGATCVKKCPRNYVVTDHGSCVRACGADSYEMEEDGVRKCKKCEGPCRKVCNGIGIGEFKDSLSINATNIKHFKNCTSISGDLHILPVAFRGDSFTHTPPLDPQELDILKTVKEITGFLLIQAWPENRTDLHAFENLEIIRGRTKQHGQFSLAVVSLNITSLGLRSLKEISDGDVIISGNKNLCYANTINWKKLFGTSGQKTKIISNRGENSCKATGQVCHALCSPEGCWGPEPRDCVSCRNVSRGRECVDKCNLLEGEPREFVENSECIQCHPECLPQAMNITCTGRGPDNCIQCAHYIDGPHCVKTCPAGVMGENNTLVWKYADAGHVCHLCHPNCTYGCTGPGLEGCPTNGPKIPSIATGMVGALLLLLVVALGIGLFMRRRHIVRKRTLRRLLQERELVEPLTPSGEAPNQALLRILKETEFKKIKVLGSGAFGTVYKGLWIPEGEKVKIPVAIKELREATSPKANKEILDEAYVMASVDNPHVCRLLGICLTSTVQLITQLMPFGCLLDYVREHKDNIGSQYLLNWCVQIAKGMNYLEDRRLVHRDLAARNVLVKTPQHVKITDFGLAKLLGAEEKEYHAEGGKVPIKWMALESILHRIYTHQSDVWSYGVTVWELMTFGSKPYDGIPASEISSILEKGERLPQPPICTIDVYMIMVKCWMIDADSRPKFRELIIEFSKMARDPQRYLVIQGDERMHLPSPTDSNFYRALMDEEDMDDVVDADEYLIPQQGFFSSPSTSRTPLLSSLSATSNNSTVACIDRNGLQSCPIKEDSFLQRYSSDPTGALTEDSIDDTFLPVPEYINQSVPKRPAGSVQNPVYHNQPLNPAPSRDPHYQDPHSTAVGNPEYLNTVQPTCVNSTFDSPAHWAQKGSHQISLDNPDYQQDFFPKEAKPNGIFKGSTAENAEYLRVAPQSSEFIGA

IC50 [µM] | Compound
0.0862 | C=CC(=O)N1CCC[C@@H](n2nc(-c3ccc(CNS(=O)(=O)c4cccc(C)c4)cc3)c3c(N)ncnc32)C1
0.124 | C=CC(=O)N1CCC[C@@H](n2nc(-c3ccc(CNS(=O)(=O)c4ccc(F)cc4F)cc3)c3c(N)ncnc32)C1
0.151 | C=CC(=O)N1CCC[C@@H](n2nc(-c3ccc(CNS(=O)(=O)c4cc(C(F)(F)F)ccc4F)cc3)c3c(N)ncnc32)C1
0.194 | C=CC(=O)N1CCC[C@@H](n2nc(-c3ccc(CNS(=O)(=O)c4cc(C)ccc4C)cc3)c3c(N)ncnc32)C1
0.0646 | C=CC(=O)N1CCC[C@@H](n2nc(-c3ccc(CNS(=O)(=O)c4cc(C)ccc4F)cc3)c3c(N)ncnc32)C1
0.363 | C=CC(=O)N1CCC[C@@H](n2nc(-c3ccc(CNS(=O)(=O)c4ccc(F)cc4)cc3)c3c(N)ncnc32)C1
0.0863 | C=CC(=O)N1CCC[C@@H](n2nc(-c3ccc(CNS(=O)(=O)c4ccccc4C(F)(F)F)cc3)c3c(N)ncnc32)C1
0.265 | C=CC(=O)N1CCC[C@@H](n2nc(-c3ccc(CNS(=O)(=O)c4ccccc4)cc3)c3c(N)ncnc32)C1
0.0957 | C=CC(=O)N1CCC[C@@H](n2nc(-c3ccc(CNS(=O)(=O)c4c(F)cccc4F)cc3)c3c(N)ncnc32)C1
0.0977 | C=CC(=O)N1CCC[C@@H](n2nc(-c3ccc(CNS(=O)(=O)c4cc(F)cc(C(F)(F)F)c4)cc3)c3c(N)ncnc32)C1
0.0605 | C=CC(=O)N1CCC[C@@H](n2nc(-c3ccc(CNS(=O)(=O)c4ccc(Cl)cc4)cc3)c3c(N)ncnc32)C1
0.29 | C=CC(=O)N1CCC[C@@H](n2nc(-c3ccc(CNS(=O)(=O)c4cccc(OC)c4)cc3)c3c(N)ncnc32)C1
0.163 | C=CC(=O)N1CCC[C@@H](n2nc(-c3ccc(CNS(=O)(=O)c4cc(F)ccc4OC)cc3)c3c(N)ncnc32)C1
0.249 | C=CC(=O)N1CCC[C@@H](n2nc(-c3ccc(CNS(=O)(=O)c4ccc(C)cc4C)cc3)c3c(N)ncnc32)C1
0.045 | C=CC(=O)N1CCC[C@@H](n2nc(-c3ccc(CNS(=O)(=O)C4CCCCC4)cc3)c3c(N)ncnc32)C1
0.073 | C=CC(=O)N1CCC[C@@H](n2nc(-c3ccc(CNS(=O)(=O)c4ccc(-c5ccccc5)cc4)cc3)c3c(N)ncnc32)C1
0.371 | C=CC(=O)N1CCC[C@@H](n2nc(-c3ccc(CNS(=O)(=O)c4ccc(OCC)cc4)cc3)c3c(N)ncnc32)C1
0.351 | C=CC(=O)N1CCC[C@@H](n2nc(-c3ccc(CNS(=O)(=O)c4cc(C)ccc4OC)cc3)c3c(N)ncnc32)C1
0.132 | C=CC(=O)N1CCC[C@@H](n2nc(-c3ccc(CNS(=O)(=O)CC)cc3)c3c(N)ncnc32)C1
0.12 | C=CC(=O)N1CCC[C@@H](n2nc(-c3ccc(CNS(=O)(=O)c4cc(F)cc(F)c4)cc3)c3c(N)ncnc32)C1

IC50 [µM] | Compound
0.0788 | C=CC(=O)N1CCC[C@@H](n2nc(-c3ccc(CN(C)S(=O)(=O)c4ccccc4F)cc3)c3c(N)ncnc32)C1
0.0581 | C=CC(=O)N1CCC[C@@H](n2nc(-c3ccc(CNS(=O)(=O)c4cccc5ccccc45)cc3)c3c(N)ncnc32)C1
0.0457 | C=CC(=O)N1CCC[C@@H](n2nc(-c3ccc(CNS(=O)(=O)c4cccc(Cl)c4)cc3)c3c(N)ncnc32)C1
0.277 | C=CC(=O)N1CCC[C@@H](n2nc(-c3ccc(CNS(=O)(=O)CCC(F)(F)F)cc3)c3c(N)ncnc32)C1
0.168 | C=CC(=O)N1CCC[C@@H](n2nc(-c3ccc(CNS(=O)(=O)c4ccccc4Cl)cc3)c3c(N)ncnc32)C1
0.112 | C=CC(=O)N1CCC[C@@H](n2nc(-c3ccc(CNS(C)(=O)=O)cc3)c3c(N)ncnc32)C1
0.272 | N#CN1CCC[C@@H](n2nc(-c3ccc(CNS(=O)(=O)c4cccc(F)c4)cc3)c3c(N)ncnc32)C1
0.0907 | C=CC(=O)N1CCC[C@@H](n2nc(-c3ccc(CNS(=O)(=O)c4ccc(C)cc4)cc3)c3c(N)ncnc32)C1
0.0918 | C=CC(=O)N1CCC[C@@H](n2nc(-c3ccc(CNS(=O)(=O)c4ccccc4C)cc3)c3c(N)ncnc32)C1
0.0733 | C=CC(=O)N1CCC[C@@H](n2nc(-c3ccc(CNS(=O)(=O)c4ccc5c(c4)CCC5)cc3)c3c(N)ncnc32)C1
0.0987 | C=CC(=O)N1CCC[C@@H](n2nc(-c3ccc(CNS(=O)(=O)c4ccc5ccccc5c4)cc3)c3c(N)ncnc32)C1
0.041 | C=CC(=O)N1CCC[C@@H](n2nc(-c3ccc(CNS(=O)(=O)c4ccccc4F)cc3)c3c(N)ncnc32)C1
0.453 | C=CC(=O)N1CCC[C@@H](n2nc(-c3ccc(CNS(=O)(=O)c4ccccc4OC(F)(F)F)cc3)c3c(N)ncnc32)C1
0.199 | C=CC(=O)N1CCC[C@@H](n2nc(-c3ccc(CNS(=O)(=O)c4ccc(F)c(C(F)(F)F)c4)cc3)c3c(N)ncnc32)C1
0.174 | C=CC(=O)N1CCC[C@@H](n2nc(-c3ccc(CNS(=O)(=O)c4ccc(C)cc4F)cc3)c3c(N)ncnc32)C1
0.323 | C=CC(=O)N1CCC[C@@H](n2nc(-c3ccc(CNS(=O)(=O)c4ccc(C)cc4OC)cc3)c3c(N)ncnc32)C1
0.129 | C=CC(=O)N1CCC[C@@H](n2nc(-c3ccc(CNS(=O)(=O)c4ccc(OC)cc4)cc3)c3c(N)ncnc32)C1
0.572 | N#CN1CCC[C@@H](n2nc(-c3ccc(CNS(=O)(=O)c4cccc(Cl)c4)cc3)c3c(N)ncnc32)C1
0.12 | C=CC(=O)N1CCC[C@@H](n2nc(-c3ccc(CNS(=O)(=O)c4cc(Cl)ccc4F)cc3)c3c(N)ncnc32)C1
0.0817 | C=CC(=O)N1CCC[C@@H](n2nc(-c3ccc(CNS(=O)(=O)c4cccc(F)c4)cc3)c3c(N)ncnc32)C1
